Tests used:
[1] = test system: HCT-116 WT, HCT-116.1 A171T and HCT-116.4 C324Y cells; assay: Drug efflux inhibitor co-incubation, ATPlite viability assay; type: cell-based
Method: Treatment of cells with efflux inhibitors. FIG. 8A. […] Co-incubation studies were performed with various inhibitors of drug efflux at their highest non toxic concentration.
Diypridamole (Sigma), MK571 (Tocris), GF918, K0143 (Tocris) and LY5979 were obtained from commercial sources indicated.

[2] = test system: OCI-Ly10 DLBCL xenografts; assay: Antitumor study, subcutaneous xenografts in CB-17 SCID mice; type: in vivo, mouse; details: 90 mg/kg BID bi-weekly
Method: (§1) Female NCr Nude rats (Taconic Farms) aged 6-8 weeks were inoculated with 10×10^6 HCT-116 cells subcutaneously in the right flank. Tumor growth was measured using digital vernier calipers. […] Rats received one dose per day biweekly for 2 weeks (days 1, 4, 8, and 11) of a 21-day therapy cycle. After three cycles of treatment refractory tumors were collected. Female CB-17 SCID mice (Charles River Laboratories) aged 6-8 weeks were inoculated with 2×10^6 THP-1 or OCI-Ly10 cells with Matrigel™ support (1:1, v/v). […] Mice received two doses per day bi-weekly (days 1, 4, 8, 11, 15, 18, 22 . . . ) until tumors reached approximately 500-800 mm^3. Tumors were then collected and one 40-50 mg piece of tumor was subcutaneously implanted using a 13 gauge trocar needle into 6 to 8 naïve animals for further study. In addition tumor DNA was extracted for mutational analysis as described in supplementary information.

THP-1 AML xenografts = assay: as above; type: in vivo, mouse; details: THP-1 xenografts, 90 mg/kg BID, biweekly
Method: as §1

[3] = test system: NEDD8-cullin levels in A171T THP-1 xenografts; assay: Pharmacodynamic marker analysis in tumor xenografts; type: in vivo, mouse; details: single dose 90 mg/kg
Source text: (§2) The relative levels of NEDD8-cullin and pIxBa were estimated by quantitative immunoblot analysis (Li-cor Odyssey system) using Alexa680-labelled anti-IgG (Molecular Probes) as the secondary antibody. For the analysis of CDT1 and cleaved caspase-3 levels in tumor sections, formalin-fixed, paraffin-embedded tumour sections were stained with the relevant antibodies, amplified with HRP-labelled secondary antibodies and detected with the ChromoMap DAB Kit (Ventana Medical Systems). Slides were counterstained with haematoxylin. Images were captured using an Eclipse E800 microscope (Nikon Instruments) and Retiga EXi colour digital camera (QImaging) and processed using Metamorph software (Molecular Devices). CDT1 and cleaved caspase-3 are expressed as a function of the DAB signal area.

[4] = Antitumor study, subcutaneous xenografts in nude rats; type: in vivo; details: female, NCr Nude, rat, in vivo, sc; immunocompromised rats, subcutaneously, days 1, 4, 8 and 11 of a 21 day cycle; read-out: maximum tolerated dose
Method: as §1

HCT-116 xenografts (WT) = assay: as above; type: in vivo
Method: as §1

[5] = test system: HCT-116 WT, A171T and G201V cells; assay: Cell cycle analysis (propidium iodide, flow cytometry); type: cell-based; details: HCT-116 resistant A171T and G201V clones, 1 μM, 24 hours
Method: Cell cycle analysis. FIG. 11A. HCT-116 WT, FIG. 11B. HCT-116.1 A171T and FIG. 11C.
Logarithmically growing cells were incubated with either MLN4924 or DMSO for the times indicated. Collected cells were fixed in 70% ethanol and stored overnight at 4° C. Fixed cells were centrifuged to remove ethanol, and the pellets were resuspended in propidium iodide and RNaseA in PBS for 1 h on ice protected from light. Cell-cycle distributions were determined using flow cytometry (FACS Calibur, Becton Dickinson) and analysed using Winlist software (Verity).

[6] = test system: NEDD8-cullin levels in HCT-116 WT and A171T xenografts; assay: Pharmacodynamic marker analysis in tumor xenografts; type: in vivo, rat; details: single dose of 150 mg/kg
Source text: as §2
The digests were analyzed on a LC/MS/MS system as previously described (Brownell et al., 2010).

[7] = test system: NEDD8 pathway (NEDD8-cullin, NEDD8-NAEβ, NEDD8-Ubc12, CDT1, NRF2); assay: Western blot pathway analysis of treated cells; type: cell-based
Method: Whole cell extracts were prepared and immunoblotting assays performed as previously described (Soucy, 2009) with primary antibodies as follows: CDT1, NRF2, NEDD8, NAEβ, UBC12 and 4924-NEDD8-ADS (MIL22) (Millennium); UBC10 (Boston Biochem); K48 (Millipore); NAE1 (sigma) and tubulin (Santa Cruz). Secondary Alexa-680-labelled antibodies to rabbit/mouse IgG (Molecular Probes) were used as appropriate and blots were imaged using the Li-Cor Odyssey Infared Imaging system.
The reduced effect on NAE inhibition was confirmed by a reduced accumulation of two CRL substrates, Nrf2 and Cdt1.

[8] = test system: E204G OCI-Ly10 xenografts; assay: Antitumor study, re-implanted resistant xenograft in SCID mice; type: in vivo, mouse; details: re-implanted E204G OCI-Ly10 tumor, 90 mg/kg BID
Method: as §1

[9] = test system: MLN4924 resistant HCT-116 cell clones; assay: Cell viability assay, 96 hours ATPlite, resistant clones; type: cell-based; details: for sensitivity of MLN4924 resistant clones to other chemotherapies: HCT-116 resistant clones, 96 hours ATPlite
Method: HCT-116 cells and resistant clones were treated with DMSO or various concentrations of FIG. 7A. bortezomib, FIG. 7B. doxorubicin or FIG. 7C. SN-38 for 96 hours and cell viability was assessed with ATPlite assay.
(§3) Cell line cultures were maintained using appropriate cell culture media as recommended by ATCC and as previously reported (Soucy et al., 2009, Milhollen et al., 2010). […] Cell viability assays completed using 96 hours ATPlite assay (PerkinElmer) as previously reported (Soucy et al., 2009).

A171T THP-1 xenografts = assay: Antitumor study, re-established resistant xenograft in SCID mice; type: in vivo, mouse; details: A171T THP-1 xenograft, 90 mg/kg BID bi-weekly
Method: as §1
The subcutaneous model was utilized to facilitate harvesting tumors for subsequent analysis. […] Three THP-1 xenografts contained a heterozygous mutation in NAEB at A171T, one contained a heterozygous mutation in at N209D and the remaining two were wild type for NAEB and so may be refractory through an alternate mechanism (FIG. 14A and Table 6).

Calu-6 cells = assay: Cell viability assay, 96 hours ATPlite; type: cell-based; details: Homo sapiens, Calu-6 parental cells
Method: as §3

NCI-H460 cells = assay: Cell viability assay, 96 hours ATPlite; type: cell-based; details: Homo sapiens, NCI-H460 parental cells
Method: as §3

HCT-116 cells = assay: Cell viability assay, 96 hours ATPlite; type: cell-based; details: Homo sapiens, HCT-116 parental cells
Method: as §3

[10] = test system: MLN4924 resistant NCI-H460 clones; assay: Cell viability assay, 96 hours ATPlite, resistant clones; type: cell-based; details: Homo sapiens; two NCI-H460 resistant clones
Method: (§4) FIG. 6A. Calu-6 and FIG. 6B.
as §3

A171T HCT-116 xenografts = assay: Antitumor study, re-transplanted resistant xenograft in nude rats; type: in vivo, rat; details: A171T HCT-116 xenograft, one cycle of 150 mg/kg (days 1, 4, 8, 11)
Method: as §1
The A171T NAEβ mutation was still present in this resistant xenograft model as confirmed by both Sanger and Sequenom methodologies.

[11] = test system: MLN4924 resistant Calu-6 clone; assay: Cell viability assay, 96 hours ATPlite, resistant clone; type: cell-based; details: Homo sapiens; one Calu-6 resistant clone
Method: as §4, §3

A573T UBA6 = molecular target: T1, A573T UBA6 (Homo sapiens, UniProt A0AVT1, A573T); assay: UBA6 pyrophosphate exchange assay; type: biochemical; details: A573T UBA6 5 nM, 1 mM ATP, 4 μM ubiquitin
T1 construct: His6 (N); made in house; host or cells: Sf9 insect cells (baculovirus, single infection)
T1 sequence (A0AVT1 whole entry A573T): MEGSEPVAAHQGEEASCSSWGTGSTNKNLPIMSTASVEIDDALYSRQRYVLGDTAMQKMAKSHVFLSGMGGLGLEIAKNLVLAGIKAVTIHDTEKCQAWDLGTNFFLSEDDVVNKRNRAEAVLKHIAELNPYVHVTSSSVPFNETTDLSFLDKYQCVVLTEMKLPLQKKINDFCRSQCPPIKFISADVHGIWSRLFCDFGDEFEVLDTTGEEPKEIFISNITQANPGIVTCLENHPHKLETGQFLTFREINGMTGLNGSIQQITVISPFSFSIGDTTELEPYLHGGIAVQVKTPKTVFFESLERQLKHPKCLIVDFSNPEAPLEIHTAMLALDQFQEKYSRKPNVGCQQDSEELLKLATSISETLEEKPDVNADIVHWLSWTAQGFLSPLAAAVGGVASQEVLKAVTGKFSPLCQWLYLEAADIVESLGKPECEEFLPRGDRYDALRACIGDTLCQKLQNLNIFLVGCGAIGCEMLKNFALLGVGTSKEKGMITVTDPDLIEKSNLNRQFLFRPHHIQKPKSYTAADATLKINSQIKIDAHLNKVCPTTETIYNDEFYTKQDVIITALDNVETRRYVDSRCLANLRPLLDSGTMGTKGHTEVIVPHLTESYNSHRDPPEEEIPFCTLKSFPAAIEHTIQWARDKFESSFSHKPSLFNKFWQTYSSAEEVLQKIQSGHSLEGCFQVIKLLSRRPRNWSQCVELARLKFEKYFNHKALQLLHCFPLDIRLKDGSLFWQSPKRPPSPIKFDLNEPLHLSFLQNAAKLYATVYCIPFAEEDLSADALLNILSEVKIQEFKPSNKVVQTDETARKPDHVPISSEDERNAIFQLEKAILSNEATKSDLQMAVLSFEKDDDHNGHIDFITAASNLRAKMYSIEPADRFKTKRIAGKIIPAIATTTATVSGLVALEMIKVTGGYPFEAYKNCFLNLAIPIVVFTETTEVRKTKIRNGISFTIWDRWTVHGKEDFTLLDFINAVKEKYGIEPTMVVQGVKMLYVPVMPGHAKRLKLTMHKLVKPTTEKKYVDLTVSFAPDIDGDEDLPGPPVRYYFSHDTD
Method: (§5) ATP and PPi titrations were run under similar condition, except ubiquitin was fixed at 4 μM. […] ATP standard curve.
(§6) Reactions were initiated with addition of 4 μM ubiquitin.

A573D UBA6 = molecular target: T2, A573D UBA6 (Homo sapiens, UniProt A0AVT1, A573D); assay: UBA6 pyrophosphate exchange assay; type: biochemical; details: A573D UBA6 5 nM, 1 mM ATP, 4 μM ubiquitin
T2 construct: His6 (N); made in house; host or cells: Sf9 insect cells (baculovirus, single infection)
T2 sequence (A0AVT1 whole entry A573D): as the sequence (A0AVT1 whole entry A573T) above, with T573D counted along it
Method: as §5, §6

wild-type UBA6 = molecular target: T3, wild-type UBA6 (Homo sapiens, UniProt A0AVT1); assay: UBA6 pyrophosphate exchange assay; type: biochemical; details: wt UBA6 5 nM, 1 mM ATP, 4 μM ubiquitin, 60 minutes at 30° C.
T3 construct: His6 (N); made in house; host or cells: Sf9 insect cells (baculovirus, single infection)
T3 sequence (A0AVT1 whole entry): as the sequence (A0AVT1 whole entry A573T) above, with T573A counted along it
Method: as §5, §6

Q: Which “sensitization of cells to MLN4924 by Pgp, BCRP and MRP2 inhibitors” value ([1]; co-treatment with MLN4924, 96 hours) does the source give for `CN(C)C(=O)CCSC(SCCC(=O)O)c1cccc(/C=C/c2ccc3ccc(Cl)cc3n2)c1` (stereo not shown) [MK519] here?
A: did not sensitize

Q: Which antitumor effect [2] does the source give for `NS(=O)(=O)OC[C@@H]1C[C@@H](n2ccc3c(N[C@H]4CCc5ccccc54)ncnc32)C[C@@H]1O` [MLN4924, ((1S,2S,4R)-4-{4-[(1S)-2,3-dihydro-1H-inden-1-ylamino]-7H-pyrrolo[2,3-d]pyrimidin-7-yl}-2-hydroxycyclopentyl)methyl sulphamate] here?
A: tumor regressions

Q: And the antitumor effect (THP-1 AML xenografts)?
A: uniform tumor regressions

Q: What about the “inhibition of NEDD8-cullin levels” value [3] of the same compound?
A: minimal inhibition

Q: What about the “MLN4924 activity on co-incubation with drug efflux inhibitors” value ([1]; efflux inhibitors at highest non toxic concentration, 96 hours) of the same compound?
A: unaffected

Q: And the MTD [4]?
A: 150 mg/kg

Q: What about the antitumor effect (HCT-116 xenografts (WT); WT HCT-116 xenografts, after first cycle, 150 mg/kg s.c.) of the same compound?
A: tumor regressions

Q: And the tumor growth inhibition (HCT-116 xenografts (WT); wild type HCT-116 xenografts, one cycle of 150 mg/kg (days 1, 4, 8, 11))?
A: 94%

Q: What about the cell cycle distribution [5] of the same compound?
A: not significantly altered

Q: And the “time of maximal inhibition of NEDD8-cullin levels post-dose” value ([6]; A171T HCT-116 resistant model)?
A: 8 h

Q: What about the “time of maximal inhibition of NEDD8-cullin levels post dose” value ([6]; WT HCT-116 xenografts) of the same compound?
A: 1 h

Q: And the “inhibition of NEDD8 conjugation to NAEB, UBC12 and the cullin proteins” value ([7]; HCT-116 A171T and G201V clones compared to WT cells)?
A: reduced effect of inhibition

Q: What about the “effect on the neddylation pathway and CRL substrate accumulation” value ([7]; NCI-H460 A171D and Calu-6 N209K clones) of the same compound?
A: reduced potency

Q: And the antitumor effect [8]?
A: resistant

Q: What about the EC50 ([9]; Homo sapiens, four HCT-116 resistant clones) of the same compound?
A: > 10 µM

Q: And the antitumor effect (A171T THP-1 xenografts)?
A: resistant

Q: And the EC50 (Calu-6 cells)?
A: 0.08 µM

Q: What about the EC50 (NCI-H460 cells) of the same compound?
A: 1.07 µM

Q: What about the EC50 (HCT-116 cells) of the same compound?
A: 0.046 µM

Q: And the EC50 [10]?
A: > 10 µM

Q: And the tumor growth inhibition (A171T HCT-116 xenografts)?
A: 38%

Q: And the EC50 [11]?
A: > 10 µM

Q: What about the IC50 (A573T UBA6) of the same compound?
A: > 100 µM

Q: And the IC50 (A573D UBA6)?
A: > 100 µM

Q: What about the IC50 (wild-type UBA6) of the same compound?
A: 6.2 ± 0.8 µM

Q: Which “sensitivity of MLN4924 resistant clones to other chemotherapies” value (“sensitivity of MLN4924 resistant clones” below) [9] does the source give for `CCc1c2c(nc3ccc(O)cc13)-c1cc3c(c(=O)n1C2)COC(=O)[C@]3(O)CC` [SN-38] here?
A: remained sensitive

Q: For `CC(C)C[C@H](NC(=O)[C@H](Cc1ccccc1)NC(=O)c1cnccn1)B(O)O` [bortezomib], which “sensitivity of MLN4924 resistant clones” value [9] is on record?
A: remained sensitive

Q: With `COc1cccc2c1C(=O)c1c(O)c3c(c(O)c1C2=O)C[C@@](O)(C(=O)CO)C[C@@H]3O[C@H]1C[C@H](N)[C@H](O)[C@H](C)O1` [doxorubicin] as the compound, how does the “sensitivity of MLN4924 resistant clones” value [9] read?
A: remained sensitive

Reference: patent US20170107579A1, “E1 ENZYME MUTANTS AND USES THEREOF” (Millennium Pharmaceuticals, Inc., priority 2011, published 2017)
